# Columns and labels:
# Assay in all cases: Methyl transferase scintillation proximity assay
# Assay type in all cases: biochemical
# Details in all cases: average of two measurements; for inhibition at 10 µM: read-out: MTases Inhibition (%)
# GLP = target: T1, GLP (Homo sapiens, UniProt Q9H9B1)
# T1 construct: purchased DiscoverX BROMOscan (bromodomains); SGC in-house methyltransferase panel
# T1 sequence (Q9H9B1 1-1298): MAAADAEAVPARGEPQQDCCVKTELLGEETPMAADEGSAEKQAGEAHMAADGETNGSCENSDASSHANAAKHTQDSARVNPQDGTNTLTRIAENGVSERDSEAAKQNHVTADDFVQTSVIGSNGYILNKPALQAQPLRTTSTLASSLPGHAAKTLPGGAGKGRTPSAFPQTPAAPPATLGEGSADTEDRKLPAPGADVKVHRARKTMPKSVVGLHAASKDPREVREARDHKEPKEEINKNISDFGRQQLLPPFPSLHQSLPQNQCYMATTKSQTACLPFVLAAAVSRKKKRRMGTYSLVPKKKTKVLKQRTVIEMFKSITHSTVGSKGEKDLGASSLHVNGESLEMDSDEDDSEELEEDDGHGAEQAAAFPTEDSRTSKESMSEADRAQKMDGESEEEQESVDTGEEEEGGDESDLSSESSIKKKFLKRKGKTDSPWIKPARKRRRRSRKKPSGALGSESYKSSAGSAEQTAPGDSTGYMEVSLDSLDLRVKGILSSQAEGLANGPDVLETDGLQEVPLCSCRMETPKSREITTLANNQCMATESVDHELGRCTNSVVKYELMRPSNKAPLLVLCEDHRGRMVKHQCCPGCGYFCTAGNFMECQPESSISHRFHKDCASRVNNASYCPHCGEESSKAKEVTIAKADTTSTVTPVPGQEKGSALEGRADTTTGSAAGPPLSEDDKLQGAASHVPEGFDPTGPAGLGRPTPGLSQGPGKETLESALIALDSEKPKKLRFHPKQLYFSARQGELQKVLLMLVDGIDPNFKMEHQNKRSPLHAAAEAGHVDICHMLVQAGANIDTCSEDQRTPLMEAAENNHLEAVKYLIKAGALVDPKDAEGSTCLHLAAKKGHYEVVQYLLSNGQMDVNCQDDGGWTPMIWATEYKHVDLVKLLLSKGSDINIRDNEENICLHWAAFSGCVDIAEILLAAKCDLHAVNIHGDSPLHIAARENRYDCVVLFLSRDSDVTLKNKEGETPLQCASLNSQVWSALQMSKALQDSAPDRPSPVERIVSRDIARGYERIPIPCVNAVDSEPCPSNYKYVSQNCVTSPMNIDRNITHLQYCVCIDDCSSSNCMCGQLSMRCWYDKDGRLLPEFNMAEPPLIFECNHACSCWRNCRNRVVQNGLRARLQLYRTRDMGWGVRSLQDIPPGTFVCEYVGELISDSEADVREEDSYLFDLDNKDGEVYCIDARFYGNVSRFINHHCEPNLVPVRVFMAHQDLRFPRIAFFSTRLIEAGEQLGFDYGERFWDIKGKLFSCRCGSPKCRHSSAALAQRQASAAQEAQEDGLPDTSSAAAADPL
# Outline: (§1)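 ^3H-SAM + biotinylated substrate, both ~apparent Km per enzyme. Quench: 7.5 M guanidine HCl; dilute in 20 mM Tris pH 8.0; FlashPlate capture 1 h; read CPM. No-compound = 100%, no-enzyme = 0% activity.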
# PRMT9 = target: T2, PRMT9 (Homo sapiens, UniProt Q6P2P2)
# T2 construct: purchased DiscoverX BROMOscan (bromodomains); SGC in-house methyltransferase panel
# T2 sequence (Q6P2P2 1-845): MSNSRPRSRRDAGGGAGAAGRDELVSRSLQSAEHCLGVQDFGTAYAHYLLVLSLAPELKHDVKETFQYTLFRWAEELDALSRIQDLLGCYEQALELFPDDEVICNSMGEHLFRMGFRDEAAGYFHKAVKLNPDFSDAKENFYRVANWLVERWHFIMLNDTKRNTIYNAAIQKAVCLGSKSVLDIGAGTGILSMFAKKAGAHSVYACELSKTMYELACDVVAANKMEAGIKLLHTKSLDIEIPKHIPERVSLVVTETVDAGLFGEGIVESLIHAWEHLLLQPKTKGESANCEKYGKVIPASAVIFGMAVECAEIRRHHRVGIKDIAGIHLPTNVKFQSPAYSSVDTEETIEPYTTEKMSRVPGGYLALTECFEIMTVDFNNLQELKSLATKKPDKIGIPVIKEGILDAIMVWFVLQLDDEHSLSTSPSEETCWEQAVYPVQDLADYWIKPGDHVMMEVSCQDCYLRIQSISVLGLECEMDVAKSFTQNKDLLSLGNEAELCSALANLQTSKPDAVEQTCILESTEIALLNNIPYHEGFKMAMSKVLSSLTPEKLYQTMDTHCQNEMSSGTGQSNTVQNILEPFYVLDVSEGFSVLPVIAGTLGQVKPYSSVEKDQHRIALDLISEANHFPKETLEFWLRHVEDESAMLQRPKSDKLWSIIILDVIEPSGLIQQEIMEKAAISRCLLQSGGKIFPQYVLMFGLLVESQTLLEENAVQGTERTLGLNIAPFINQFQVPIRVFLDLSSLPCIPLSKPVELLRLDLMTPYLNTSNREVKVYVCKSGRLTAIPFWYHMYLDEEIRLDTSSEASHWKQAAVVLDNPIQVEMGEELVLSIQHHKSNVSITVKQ
# Outline: as §1
# ASH1L = target: T3, ASH1L (Homo sapiens, UniProt Q9NR48)
# T3 construct: purchased DiscoverX BROMOscan (bromodomains); SGC in-house methyltransferase panel
# Outline: as §1
# DNMT1 = target: T4, DNMT1 (Homo sapiens, UniProt P26358)
# T4 construct: purchased DiscoverX BROMOscan (bromodomains); SGC in-house methyltransferase panel
# Outline: as §1
# T4 sequence (P26358 whole entry): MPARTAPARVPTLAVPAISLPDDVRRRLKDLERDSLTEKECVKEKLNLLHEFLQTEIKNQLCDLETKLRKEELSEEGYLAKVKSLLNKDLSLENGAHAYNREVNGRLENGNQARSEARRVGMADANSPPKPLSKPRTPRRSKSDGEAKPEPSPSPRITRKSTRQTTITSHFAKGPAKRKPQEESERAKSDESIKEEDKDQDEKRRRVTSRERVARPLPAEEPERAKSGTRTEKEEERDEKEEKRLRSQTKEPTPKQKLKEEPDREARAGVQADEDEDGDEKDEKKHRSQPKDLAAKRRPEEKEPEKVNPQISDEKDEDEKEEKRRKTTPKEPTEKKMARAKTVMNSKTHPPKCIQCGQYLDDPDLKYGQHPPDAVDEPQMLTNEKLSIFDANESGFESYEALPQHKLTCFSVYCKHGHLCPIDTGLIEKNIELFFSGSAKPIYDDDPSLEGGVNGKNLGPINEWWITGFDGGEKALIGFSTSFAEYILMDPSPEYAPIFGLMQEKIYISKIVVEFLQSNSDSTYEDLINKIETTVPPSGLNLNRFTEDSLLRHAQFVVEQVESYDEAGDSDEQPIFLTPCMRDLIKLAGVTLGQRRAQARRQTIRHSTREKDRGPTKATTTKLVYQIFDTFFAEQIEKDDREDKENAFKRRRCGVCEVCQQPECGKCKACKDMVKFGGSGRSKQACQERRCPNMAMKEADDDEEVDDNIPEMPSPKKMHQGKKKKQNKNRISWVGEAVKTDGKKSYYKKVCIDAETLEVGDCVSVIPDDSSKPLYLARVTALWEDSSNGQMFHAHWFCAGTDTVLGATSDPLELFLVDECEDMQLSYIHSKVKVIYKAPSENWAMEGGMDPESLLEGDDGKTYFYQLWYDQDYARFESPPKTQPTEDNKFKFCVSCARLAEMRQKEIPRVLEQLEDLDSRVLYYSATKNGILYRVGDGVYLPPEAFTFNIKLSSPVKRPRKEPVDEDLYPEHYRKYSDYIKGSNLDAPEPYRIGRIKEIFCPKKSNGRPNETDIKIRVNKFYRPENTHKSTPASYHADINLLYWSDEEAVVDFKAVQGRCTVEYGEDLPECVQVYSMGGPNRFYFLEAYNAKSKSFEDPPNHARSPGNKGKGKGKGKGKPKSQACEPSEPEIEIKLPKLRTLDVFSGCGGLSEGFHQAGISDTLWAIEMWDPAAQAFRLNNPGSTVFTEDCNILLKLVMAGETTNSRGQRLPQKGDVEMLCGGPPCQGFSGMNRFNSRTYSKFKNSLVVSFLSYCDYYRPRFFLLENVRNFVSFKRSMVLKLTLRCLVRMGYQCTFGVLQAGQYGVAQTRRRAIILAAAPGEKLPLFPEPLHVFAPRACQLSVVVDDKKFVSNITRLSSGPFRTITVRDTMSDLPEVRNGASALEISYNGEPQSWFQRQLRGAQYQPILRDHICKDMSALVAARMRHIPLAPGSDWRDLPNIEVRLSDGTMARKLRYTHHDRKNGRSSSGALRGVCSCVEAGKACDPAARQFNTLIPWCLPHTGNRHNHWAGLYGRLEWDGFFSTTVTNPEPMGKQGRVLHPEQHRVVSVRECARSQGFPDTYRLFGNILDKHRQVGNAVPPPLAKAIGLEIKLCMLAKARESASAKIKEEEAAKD
smiles,measurement,setting,value
Cc1c(NC(=O)c2cc(C(N)=O)nc3cc(F)ccc23)c(C(F)(F)F)nn1Cc1ccc(C(C)(C)C)cc1 [BAY-588],inhibition at 10 µM,GLP,2%
same,inhibition at 10 µM,PRMT9,3%
same,inhibition at 10 µM,ASH1L,-6%
same,inhibition at 10 µM,DNMT1,9%
COc1cc(Cl)c(C(=O)N[C@@H](CN[C@H]2CC[C@@H](N)CC2)Cc2ccc(C#N)cc2)cc1-c1ccc(CN[C@H](C)c2ccc(C)cc2)o1 [BAY-850],inhibition at 10 µM,GLP,2%
same,inhibition at 10 µM,PRMT9,15%
same,inhibition at 10 µM,ASH1L,3%
same,inhibition at 10 µM,DNMT1,4%
Cc1c(NC(=O)c2cc(C(N)=O)nc3cc(F)ccc23)c(C(F)(F)F)nn1Cc1ccc(C#N)cc1 [BAY-876],inhibition at 10 µM,GLP,0%
same,inhibition at 10 µM,PRMT9,12%
same,inhibition at 10 µM,ASH1L,4%
same,inhibition at 10 µM,DNMT1,4%
CN1C[C@H](Nc2cnn(C)c(=O)c2Br)C[C@H](c2ccccc2)C1 [GSK4027],inhibition at 10 µM,GLP,2%
same,inhibition at 10 µM,PRMT9,8%
same,inhibition at 10 µM,ASH1L,13%
same,inhibition at 10 µM,DNMT1,3%
COc1ccccc1C(=O)Nc1cc2c(cc1N1CCNC[C@H]1C)n(C)c(=O)n2C [GSK6853],MTases Inhibition (%),GLP; 10µM,3%
same,MTases Inhibition (%),PRMT9; 10µM,12%
same,MTases Inhibition (%),ASH1L; 10µM,4%
same,MTases Inhibition (%),DNMT1; 10µM,-8%
CO[C@H]1CNC[C@@H](OCC2CCC(F)(F)CC2)[C@@H]1Nc1ncc(-c2cncc(C)c2)c2cc(C)c(=O)[nH]c12 [GSK8814],inhibition at 10 µM,GLP,2%
same,inhibition at 10 µM,PRMT9,3%
same,inhibition at 10 µM,ASH1L,2%
same,inhibition at 10 µM,DNMT1,-3%
Cc1nnc2c3ccccc3c(N[C@@H](C)[C@H](c3ccccc3)N(C)C)nn12 [L-Moses],inhibition at 10 µM,GLP,2%
same,inhibition at 10 µM,PRMT9,13%
same,inhibition at 10 µM,ASH1L,-3%
same,inhibition at 10 µM,DNMT1,3%
CN(C)CCCOc1ccc(-c2cc(NCCCn3cccn3)nc(S(C)(=O)=O)n2)cc1 [TP-238],inhibition at 10 µM,GLP,1%
same,inhibition at 10 µM,PRMT9,7%
same,inhibition at 10 µM,ASH1L,-4%
same,inhibition at 10 µM,DNMT1,3%

# — article PMC6478789, “A chemical toolbox for the study of bromodomains and epigenetic signaling” (Nature Communications, 2019)
